Test results published in PubChem BioAssay (NCI).
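The compound was tested at five concentrations on cells cultured in 96-well plates, with a 48-hour exposure period. TGI denotes the concentration required for complete inhibition of growth.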

tested on: 786-0 renal; assay: NCI tumour cell line growth inhibition, 48 h

Question: For `COC(=O)C1Cc2c([nH]c3ccccc23)C(C2CCCCC2)N1` (configuration not stated), which TGI is on record?
Answer: Its TGI is over 100 µM.

Question: With `CCN(C(=N)C#N)c1ccccc1` as the compound, how does the TGI read?
Answer: Its TGI is over 60.3 µM.

Question: How did the TGI turn out when `O=C1[C@@H]2C(c3cccc([N+](=O)[O-])c3)=NO[C@@H]2C(=O)N1c1ccc(Cc2ccc(N3C(=O)[C@H]4C(c5cccc([N+](=O)[O-])c5)=NO[C@H]4C3=O)cc2)cc1` was run?
Answer: Its TGI is over 100 µM.

Question: With `O=C(NO)C(=O)Nc1cc(Cl)ccc1Cl` as the compound, how does the TGI read?
Answer: Its TGI is over 100 µM.

tested on: A498 renal; assay: NCI tumour cell line growth inhibition, 48 h

Question: With `CCN(C(=N)C#N)c1ccccc1` as the compound, how does the TGI read?
Answer: The TGI was over 100 µM.

Question: With `O=C(NO)C(=O)Nc1cc(Cl)ccc1Cl` as the compound, how does the TGI read?
Answer: Its TGI is over 100 µM.

tested on: A549 NSCLC; assay: NCI tumour cell line growth inhibition, 48 h

Question: With `COC(=O)C1Cc2c([nH]c3ccccc23)C(C2CCCCC2)N1` (configuration not stated) as the compound, how does the TGI read?
Answer: The TGI was over 100 µM.

Question: With `CCN(C(=N)C#N)c1ccccc1` as the compound, how does the TGI read?
Answer: Its TGI is over 100 µM.

Question: Which TGI does the source give for `O=C(NO)C(=O)Nc1cc(Cl)ccc1Cl` here?
Answer: Its TGI is over 100 µM.

tested on: ACHN renal; assay: NCI tumour cell line growth inhibition, 48 h

Question: `COC(=O)C1Cc2c([nH]c3ccccc23)C(C2CCCCC2)N1` (configuration not stated) was tested. Which TGI did it give?
Answer: Its TGI is over 100 µM.

Question: How did the TGI turn out when `CCN(C(=N)C#N)c1ccccc1` was run?
Answer: Its TGI is over 100 µM.

Question: With `O=C1[C@@H]2C(c3cccc([N+](=O)[O-])c3)=NO[C@@H]2C(=O)N1c1ccc(Cc2ccc(N3C(=O)[C@H]4C(c5cccc([N+](=O)[O-])c5)=NO[C@H]4C3=O)cc2)cc1` as the compound, how does the TGI read?
Answer: The TGI was over 100 µM.

Question: Which TGI does the source give for `O=C(NO)C(=O)Nc1cc(Cl)ccc1Cl` here?
Answer: The TGI was over 100 µM.

tested on: CAKI-1 renal; assay: NCI tumour cell line growth inhibition, 48 h

Question: `COC(=O)C1Cc2c([nH]c3ccccc23)C(C2CCCCC2)N1` (configuration not stated) was tested. Which TGI did it give?
Answer: Its TGI is over 100 µM.

Question: How did the TGI turn out when `CCN(C(=N)C#N)c1ccccc1` was run?
Answer: Its TGI is over 100 µM.

Question: For `O=C1[C@@H]2C(c3cccc([N+](=O)[O-])c3)=NO[C@@H]2C(=O)N1c1ccc(Cc2ccc(N3C(=O)[C@H]4C(c5cccc([N+](=O)[O-])c5)=NO[C@H]4C3=O)cc2)cc1`, which TGI is on record?
Answer: Its TGI is over 100 µM.

Question: `O=C(NO)C(=O)Nc1cc(Cl)ccc1Cl` was tested. Which TGI did it give?
Answer: The TGI was over 100 µM.

tested on: CCRF-CEM leukemia; assay: NCI tumour cell line growth inhibition, 48 h

Question: For `COC(=O)C1Cc2c([nH]c3ccccc23)C(C2CCCCC2)N1` (configuration not stated), which TGI is on record?
Answer: Its TGI is over 100 µM.

Question: For `CCN(C(=N)C#N)c1ccccc1`, which TGI is on record?
Answer: The TGI was over 85.1 µM.

Question: With `O=C1[C@@H]2C(c3cccc([N+](=O)[O-])c3)=NO[C@@H]2C(=O)N1c1ccc(Cc2ccc(N3C(=O)[C@H]4C(c5cccc([N+](=O)[O-])c5)=NO[C@H]4C3=O)cc2)cc1` as the compound, how does the TGI read?
Answer: The TGI was over 100 µM.

Question: With `O=C(NO)C(=O)Nc1cc(Cl)ccc1Cl` as the compound, how does the TGI read?
Answer: The TGI was over 100 µM.

tested on: COLO 205 colon; assay: NCI tumour cell line growth inhibition, 48 h

Question: How did the TGI turn out when `COC(=O)C1Cc2c([nH]c3ccccc23)C(C2CCCCC2)N1` (configuration not stated) was run?
Answer: The TGI was over 100 µM.

Question: With `CCN(C(=N)C#N)c1ccccc1` as the compound, how does the TGI read?
Answer: Its TGI is over 100 µM.

Question: For `O=C1[C@@H]2C(c3cccc([N+](=O)[O-])c3)=NO[C@@H]2C(=O)N1c1ccc(Cc2ccc(N3C(=O)[C@H]4C(c5cccc([N+](=O)[O-])c5)=NO[C@H]4C3=O)cc2)cc1`, which TGI is on record?
Answer: The TGI was over 100 µM.

Question: `O=C(NO)C(=O)Nc1cc(Cl)ccc1Cl` was tested. Which TGI did it give?
Answer: Its TGI is over 100 µM.

tested on: DLD-1 colon; assay: NCI tumour cell line growth inhibition, 48 h

Question: For `COC(=O)C1Cc2c([nH]c3ccccc23)C(C2CCCCC2)N1` (configuration not stated), which TGI is on record?
Answer: Its TGI is over 100 µM.

Question: For `CCN(C(=N)C#N)c1ccccc1`, which TGI is on record?
Answer: The TGI was over 65.6 µM.

Question: With `O=C1[C@@H]2C(c3cccc([N+](=O)[O-])c3)=NO[C@@H]2C(=O)N1c1ccc(Cc2ccc(N3C(=O)[C@H]4C(c5cccc([N+](=O)[O-])c5)=NO[C@H]4C3=O)cc2)cc1` as the compound, how does the TGI read?
Answer: Its TGI is over 100 µM.

Question: With `O=C(NO)C(=O)Nc1cc(Cl)ccc1Cl` as the compound, how does the TGI read?
Answer: Its TGI is over 100 µM.

tested on: DMS 114 small cell lung; assay: NCI tumour cell line growth inhibition, 48 h

Question: With `COC(=O)C1Cc2c([nH]c3ccccc23)C(C2CCCCC2)N1` (configuration not stated) as the compound, how does the TGI read?
Answer: Its TGI is over 100 µM.

Question: Which TGI does the source give for `CCN(C(=N)C#N)c1ccccc1` here?
Answer: Its TGI is over 88.2 µM.

Question: Which TGI does the source give for `O=C1[C@@H]2C(c3cccc([N+](=O)[O-])c3)=NO[C@@H]2C(=O)N1c1ccc(Cc2ccc(N3C(=O)[C@H]4C(c5cccc([N+](=O)[O-])c5)=NO[C@H]4C3=O)cc2)cc1` here?
Answer: The TGI was over 100 µM.

Question: With `O=C(NO)C(=O)Nc1cc(Cl)ccc1Cl` as the compound, how does the TGI read?
Answer: The TGI was over 100 µM.

tested on: DMS 273 small cell lung; assay: NCI tumour cell line growth inhibition, 48 h

Question: Which TGI does the source give for `COC(=O)C1Cc2c([nH]c3ccccc23)C(C2CCCCC2)N1` (configuration not stated) here?
Answer: The TGI was over 100 µM.

Question: With `CCN(C(=N)C#N)c1ccccc1` as the compound, how does the TGI read?
Answer: The TGI was over 58.3 µM.

Question: With `O=C1[C@@H]2C(c3cccc([N+](=O)[O-])c3)=NO[C@@H]2C(=O)N1c1ccc(Cc2ccc(N3C(=O)[C@H]4C(c5cccc([N+](=O)[O-])c5)=NO[C@H]4C3=O)cc2)cc1` as the compound, how does the TGI read?
Answer: The TGI was over 100 µM.

Question: Which TGI does the source give for `O=C(NO)C(=O)Nc1cc(Cl)ccc1Cl` here?
Answer: Its TGI is over 100 µM.

tested on: EKVX NSCLC; assay: NCI tumour cell line growth inhibition, 48 h

Question: How did the TGI turn out when `COC(=O)C1Cc2c([nH]c3ccccc23)C(C2CCCCC2)N1` (configuration not stated) was run?
Answer: Its TGI is over 100 µM.

Question: `CCN(C(=N)C#N)c1ccccc1` was tested. Which TGI did it give?
Answer: Its TGI is over 100 µM.

Question: For `O=C(NO)C(=O)Nc1cc(Cl)ccc1Cl`, which TGI is on record?
Answer: The TGI was over 100 µM.

tested on: HCC-2998 colon; assay: NCI tumour cell line growth inhibition, 48 h

Question: Which TGI does the source give for `COC(=O)C1Cc2c([nH]c3ccccc23)C(C2CCCCC2)N1` (configuration not stated) here?
Answer: The TGI was over 100 µM.

Question: `CCN(C(=N)C#N)c1ccccc1` was tested. Which TGI did it give?
Answer: Its TGI is over 100 µM.

Question: Which TGI does the source give for `O=C(NO)C(=O)Nc1cc(Cl)ccc1Cl` here?
Answer: Its TGI is over 100 µM.

tested on: HCT-116 colon; assay: NCI tumour cell line growth inhibition, 48 h

Question: How did the TGI turn out when `COC(=O)C1Cc2c([nH]c3ccccc23)C(C2CCCCC2)N1` (configuration not stated) was run?
Answer: The TGI was over 100 µM.

Question: With `CCN(C(=N)C#N)c1ccccc1` as the compound, how does the TGI read?
Answer: Its TGI is over 100 µM.

Question: For `O=C1[C@@H]2C(c3cccc([N+](=O)[O-])c3)=NO[C@@H]2C(=O)N1c1ccc(Cc2ccc(N3C(=O)[C@H]4C(c5cccc([N+](=O)[O-])c5)=NO[C@H]4C3=O)cc2)cc1`, which TGI is on record?
Answer: The TGI was over 100 µM.

Question: Which TGI does the source give for `O=C(NO)C(=O)Nc1cc(Cl)ccc1Cl` here?
Answer: The TGI was over 100 µM.

tested on: HCT-15 colon; assay: NCI tumour cell line growth inhibition, 48 h

Question: How did the TGI turn out when `COC(=O)C1Cc2c([nH]c3ccccc23)C(C2CCCCC2)N1` (configuration not stated) was run?
Answer: The TGI was over 100 µM.

Question: Which TGI does the source give for `CCN(C(=N)C#N)c1ccccc1` here?
Answer: Its TGI is over 69.2 µM.

Question: For `O=C1[C@@H]2C(c3cccc([N+](=O)[O-])c3)=NO[C@@H]2C(=O)N1c1ccc(Cc2ccc(N3C(=O)[C@H]4C(c5cccc([N+](=O)[O-])c5)=NO[C@H]4C3=O)cc2)cc1`, which TGI is on record?
Answer: Its TGI is over 100 µM.

Question: Which TGI does the source give for `O=C(NO)C(=O)Nc1cc(Cl)ccc1Cl` here?
Answer: The TGI was over 100 µM.

tested on: HL-60(TB) leukemia; assay: NCI tumour cell line growth inhibition, 48 h

Question: How did the TGI turn out when `COC(=O)C1Cc2c([nH]c3ccccc23)C(C2CCCCC2)N1` (configuration not stated) was run?
Answer: The TGI was over 100 µM.
